Test results taken from paper PMC6296175, “Oxidative stress‐induced structural changes in the microtubule‐associated flavoenzyme Irc15p from Saccharomyces cerevisiae” (Protein Science : A Publication of the Protein Society, 2018).
Each block holds one molecule with its values, some of them ahead of it.

Tests used:
Irc15p [1] = target: T1, Irc15p (Saccharomyces cerevisiae, UniProt Q02733); assay: thermal shift assay (SYPRO Orange); assay type: binding; settings: 50 mM HEPES, 50 mM NaCl, 1 mM DTT, pH 7.0, absolute Tm, compare ligand-free control in the 4th table, row 3
T1 construct: gene IRC15; E. coli Rosetta (DE3); ~55 kDa subunit, homodimer ~113-115 kDa, one FAD per protomer
T1 sequence (Q02733 1-499): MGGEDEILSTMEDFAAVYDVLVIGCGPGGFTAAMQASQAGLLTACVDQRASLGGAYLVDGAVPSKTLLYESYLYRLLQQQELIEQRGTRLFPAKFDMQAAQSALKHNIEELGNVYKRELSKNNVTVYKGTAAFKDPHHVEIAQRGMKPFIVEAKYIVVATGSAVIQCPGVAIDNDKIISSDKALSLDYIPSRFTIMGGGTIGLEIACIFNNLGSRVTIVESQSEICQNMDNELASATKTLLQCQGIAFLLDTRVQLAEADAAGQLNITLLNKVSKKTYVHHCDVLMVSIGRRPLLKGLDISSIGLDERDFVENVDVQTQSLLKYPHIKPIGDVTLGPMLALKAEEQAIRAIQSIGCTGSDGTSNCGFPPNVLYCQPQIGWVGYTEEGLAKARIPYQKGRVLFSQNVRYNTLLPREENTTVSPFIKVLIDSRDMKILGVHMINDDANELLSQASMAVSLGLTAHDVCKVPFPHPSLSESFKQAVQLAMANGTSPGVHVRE
Source text: thermal shift assay (SYPRO Orange) on Irc15p

Irc15p [2] = target: T1, Irc15p; assay: stopped-flow reductive half-reaction, flavin absorption at […] nm, hyperbolic fit of rate; assay type: biochemical; settings: anoxic; 50 mM HEPES, 50 mM NaCl, 1 mM DTT, pH 7.0; 4 °C; pre-steady-state; read-out: dissociation constant
Irc15p [3] = target: T1, Irc15p; assay: HPLC of flavin released from denatured protein; UV-Vis absorption; assay type: binding; settings: co-purified; lysis buffer supplemented with 10 μM FAD; one FAD per protomer
[4] = target: the molecule itself; assay: SEC; analytical size exclusion chromatography, Superdex 200 10/300 GL, buffer A (50 mM HEPES, 150 mM NaCl, 1 mM DTT, pH 7.0), calibrated with molecular mass standards; elution monitored at 280 and 450 nm

T m [°C] (Irc15p [1]; 50 mM NADH, ligand reduces the FAD): 47 °C
Kd (Irc15p [2]): 100 ± 5 µM
Molecule: NC(=O)C1=CN([C@@H]2O[C@H](COP(=O)(O)OP(=O)(O)OC[C@H]3O[C@@H](n4cnc5c(N)ncnc54)[C@H](O)[C@@H]3O)[C@@H](O)[C@H]2O)C=CC1 [NADH]

T m [°C] (Irc15p [1]; 50 mM NAD+): 64 °C
Molecule: NC(=O)c1ccc[n+]([C@@H]2O[C@H](COP(=O)(O)OP(=O)(O)OC[C@H]3O[C@@H](n4cnc5c(N)ncnc54)[C@H](O)[C@@H]3O)[C@@H](O)[C@H]2O)c1 [NAD^+]

T m [°C] (Irc15p [1]; 50 mM NADPH, ligand reduces the FAD): 45 °C
Molecule: NC(=O)C1=CN([C@@H]2O[C@H](COP(=O)(O)OP(=O)(O)OC[C@H]3O[C@@H](n4cnc5c(N)ncnc54)[C@H](OP(=O)(O)O)[C@@H]3O)[C@@H](O)[C@H]2O)C=CC1 [NADPH]

Molecule: Cc1cc2nc3c(=O)[nH]c(=O)nc-3n(C[C@H](O)[C@H](O)[C@H](O)COP(=O)(O)OP(=O)(O)OC[C@H]3O[C@@H](n4cnc5c(N)ncnc54)[C@H](O)[C@@H]3O)c2cc1C [FAD]
HPLC of flavin released from denatured protein; UV-Vis absorption (Irc15p [3]): closely corresponding to the retention time of authentic FAD

B1: Irc15p (increased recombination centers 15) (enzyme, S. cerevisiae, UniProt Q02733 1-499, looked up)
chain: T1 sequence (Q02733 1-499)
notes: The forward primer carries the start ATG; Homodimer with one FAD per protomer; this was read from the printed primers; source: E. coli Rosetta (DE3), pET21d(+)IRC15, purified (Ni-NTA HisTrap HP; for SAXS also size exclusion chromatography)
stoichiometry N [4]: 2
